From patent US20060089378A1 (priority 2004, published 2006)
pEC50, pIC50: −log10 of the molar value.

How the values were obtained:
[1] = target: CB1 receptor (human) (Homo sapiens, UniProt P21554); assay: cell-based
[2] = target: T1, Cannabinoid CB2 Receptor (Homo sapiens, UniProt P34972); assay: Binding assay for CB2 agonists or inverse agonists (radioligand competition, membranes of transfected SK-N-MC cells)
T1 construct: expressed in transfected cells

[3] = target: T2, Cannabinoid CB1 Receptor (Homo sapiens, UniProt P21554); assay: Binding assay for CB1 agonists or inverse agonists (radioligand competition, membranes of transfected SK-N-MC cells)
T2 construct: expressed in transfected cells
T2 sequence (P21554 whole entry): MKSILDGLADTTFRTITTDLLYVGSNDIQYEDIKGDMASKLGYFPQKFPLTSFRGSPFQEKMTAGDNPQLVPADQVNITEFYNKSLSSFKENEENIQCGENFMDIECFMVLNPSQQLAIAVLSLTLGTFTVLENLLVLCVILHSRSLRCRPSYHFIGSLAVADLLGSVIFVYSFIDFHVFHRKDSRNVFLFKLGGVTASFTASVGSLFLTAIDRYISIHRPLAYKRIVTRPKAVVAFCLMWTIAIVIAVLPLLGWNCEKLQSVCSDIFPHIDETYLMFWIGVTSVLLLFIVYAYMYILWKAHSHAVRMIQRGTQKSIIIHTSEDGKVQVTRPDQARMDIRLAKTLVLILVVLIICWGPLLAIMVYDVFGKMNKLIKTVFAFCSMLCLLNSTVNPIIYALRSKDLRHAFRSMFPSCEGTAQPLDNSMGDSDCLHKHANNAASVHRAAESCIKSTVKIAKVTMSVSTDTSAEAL

[4] = target: T3, CB2 receptor (human) (Homo sapiens, UniProt P34972); assay: Functional cell-based assay, CB2 receptor mediated change in CRE β-gal expression (adenylate cyclase activity) in SK-N-MC cells; details: CB2 section; one compound concentration; relative to vehicle treated cell activity (100%)
T3 construct: expressed in transfected cells
T3 sequence (P34972 whole entry): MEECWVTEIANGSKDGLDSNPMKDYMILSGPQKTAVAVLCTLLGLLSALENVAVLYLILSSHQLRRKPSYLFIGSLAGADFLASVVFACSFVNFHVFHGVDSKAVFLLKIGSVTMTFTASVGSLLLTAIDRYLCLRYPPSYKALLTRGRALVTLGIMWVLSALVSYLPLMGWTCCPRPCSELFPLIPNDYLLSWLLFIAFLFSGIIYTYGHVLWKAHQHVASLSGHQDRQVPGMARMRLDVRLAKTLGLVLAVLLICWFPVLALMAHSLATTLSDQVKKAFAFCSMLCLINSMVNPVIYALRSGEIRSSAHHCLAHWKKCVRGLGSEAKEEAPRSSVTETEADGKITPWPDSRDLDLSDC

T1 sequence (P34972 whole entry): as above
Sequence of CB1 receptor (human) (P21554 whole entry): as the sequence (P21554 whole entry) above

Structure (SMILES): CC12CCC(C1)C(C)(C)C2NC(=O)c1nn(C2CCCCC2)c2c1CN(S(C)(=O)=O)CC2 (stereo not shown) [Cpd 133, 1-cyclohexyl-5-methanesulfonyl-4,5,6,7-tetrahydro-1H-pyrazolo[4,3-c]pyridine-3-carboxylic acid (1,3,3-trimethyl-bicyclo[2.2.1]hept-2-yl)-amide]
- pEC50 [1]: 6.14
- pIC50 [2]: 6.52
- pIC50 [3]: 6.40
- change in functional activity [4]: −29%
